Measurements published in patent US7368443B2, “2,6-disubstituted piperidines and piperazine compounds” (University of Kentucky Research Foundation, priority 1999, dated 2008).
Read-outs that look alike come from different tables or passages of the source.

Experiments:
[1] = biological target: T1, serotonin transporter (SERT) (Rattus norvegicus, UniProt P31652); assay: [3H]5-HT uptake assay, hippocampal synaptosomes; assay type: biochemical; settings: for IC50: Table 4, earlier studies
T1 construct: Rat hippocampus was homogenized in 20 mL cold 0.32 M sucrose; from tissue; host or cells: rat hippocampal synaptosomes

VMAT2 [2] = biological target: T2, VMAT2 (Rattus norvegicus, UniProt Q01827); assay: biochemical
[3] = biological target: T3, dopamine transporter (DAT) (Rattus norvegicus, UniProt P23977); assay: [3H]Dopamine uptake assay, striatal synaptosomes; assay type: biochemical
T3 construct: Striata were homogenized in 20 ml of ice-cold sucrose solution; from tissue; host or cells: striatal synaptosomes

α6β2* nicotinic receptor = α6β2* nicotinic receptor (Rattus norvegicus, UniProt P12390+P43143); assay: Nicotine-evoked [3H]DA overflow from superfused striatal slices; assay type: cell-based
α3β4* nicotinic receptor = α3β4* nicotinic receptor (Rattus norvegicus, UniProt P04757+P12392); assay: Nicotine-evoked [3H]NE overflow from superfused hippocampal slices; assay type: cell-based; settings: inhibition of 10 μM S(−)-nicotine
α4β2* nicotinic receptor [4] = biological target: T4, α4β2* nicotinic receptor (Rattus norvegicus, UniProt P09483+P12390); assay: High affinity [3H]nicotine binding assay; parameters: The pellet containing the striatal membranes was resuspended; from tissue; host or cells: rat striatal membranes
[5] = test system: methamphetamine-evoked endogenous DA release from striatal slices; assay: Methamphetamine-evoked endogenous DA overflow from superfused striatal slices; assay type: cell-based; settings: read-out: Inhibition of Methamphetamine Evoked DA Overflow IC50 (Mean)
VMAT2 [6] = biological target: T2, VMAT2; assay: [3H]Dihydrotetrabenazine ([3H]DTBZ) binding assay, synaptic vesicles; settings: inhibition of [3H]DTBZ binding Ki, text b58
α7* nicotinic receptor = biological target: T5, α7* nicotinic receptor (Rattus norvegicus, UniProt Q05941); assay: [3H]Methyllycaconitine ([3H]MLA) binding assay; settings: Table 1; rat whole brain membranes; read-out: [3H]MLA Binding (Ki) α7*
T5 construct: Whole rat brain (minus cortex, striatum and cerebellum) was homogenized; from tissue; host or cells: rat whole brain membranes (minus cortex, striatum and cerebellum)

α4β2* nicotinic receptor [7] = biological target: T4, α4β2* nicotinic receptor; assay: Nicotine-evoked 86Rb+ efflux assay, thalamic synaptosomes; assay type: biochemical; parameters: from tissue; settings: read-out: Inhibition of Nicotine-Evoked 86Rb+ Efflux (IC50) α4β2*
[8] = Table 1, read-out: [3H]5-HT Uptake (Ki) SERT
[9] = Table 1, read-out: [3H]DA Uptake (Ki)
[10] = Table 1, inhibition of 10 μM S(−)-nicotine, NI: no inhibition, read-out: Inhibition of Nicotine-Evoked [3H]DA Overflow (IC50) α6β2*
[11] = inhibition of nicotine-evoked [3H]DA overflow IC50
[12] = Table 1, rat striatal membranes, read-out: [3H]Nicotine Binding (Ki) α4β2*
[13] = Table 4, earlier studies, read-out: [3H]Nicotine Binding (Ki) α4β2*
[14] = Table 3, earlier study, read-out: Ki [3H]-Dopamine Uptake Assay
[15] = Table 3, earlier study, read-out: Ki [3H]-Nicotine Binding Assay

Sequence of α3β4* nicotinic receptor (P04757 26-499): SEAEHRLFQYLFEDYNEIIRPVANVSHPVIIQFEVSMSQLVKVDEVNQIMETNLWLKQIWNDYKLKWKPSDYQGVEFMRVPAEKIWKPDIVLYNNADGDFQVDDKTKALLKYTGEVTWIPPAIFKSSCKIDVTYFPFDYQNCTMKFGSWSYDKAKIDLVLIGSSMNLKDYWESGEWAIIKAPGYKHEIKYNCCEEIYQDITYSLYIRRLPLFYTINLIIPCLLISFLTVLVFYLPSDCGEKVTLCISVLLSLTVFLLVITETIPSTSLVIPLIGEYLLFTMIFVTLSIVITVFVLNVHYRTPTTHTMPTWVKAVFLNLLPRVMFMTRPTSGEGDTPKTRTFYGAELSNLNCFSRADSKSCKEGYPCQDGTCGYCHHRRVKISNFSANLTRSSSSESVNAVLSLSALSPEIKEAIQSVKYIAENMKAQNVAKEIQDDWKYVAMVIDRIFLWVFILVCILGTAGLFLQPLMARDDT
Sequence of α3β4* nicotinic receptor (P12392 21-495): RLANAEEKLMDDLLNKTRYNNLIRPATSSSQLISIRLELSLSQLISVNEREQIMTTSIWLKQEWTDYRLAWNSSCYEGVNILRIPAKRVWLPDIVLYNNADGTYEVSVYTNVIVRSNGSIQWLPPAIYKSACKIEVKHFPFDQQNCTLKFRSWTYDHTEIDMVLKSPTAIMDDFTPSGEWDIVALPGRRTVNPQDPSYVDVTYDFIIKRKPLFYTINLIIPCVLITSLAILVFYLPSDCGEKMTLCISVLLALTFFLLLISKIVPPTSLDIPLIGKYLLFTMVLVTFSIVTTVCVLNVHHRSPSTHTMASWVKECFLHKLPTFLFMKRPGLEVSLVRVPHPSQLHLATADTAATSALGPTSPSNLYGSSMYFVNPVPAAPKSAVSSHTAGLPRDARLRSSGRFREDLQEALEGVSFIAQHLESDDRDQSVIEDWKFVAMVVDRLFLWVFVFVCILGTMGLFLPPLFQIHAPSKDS
Sequence of α6β2* nicotinic receptor (P43143 31-493): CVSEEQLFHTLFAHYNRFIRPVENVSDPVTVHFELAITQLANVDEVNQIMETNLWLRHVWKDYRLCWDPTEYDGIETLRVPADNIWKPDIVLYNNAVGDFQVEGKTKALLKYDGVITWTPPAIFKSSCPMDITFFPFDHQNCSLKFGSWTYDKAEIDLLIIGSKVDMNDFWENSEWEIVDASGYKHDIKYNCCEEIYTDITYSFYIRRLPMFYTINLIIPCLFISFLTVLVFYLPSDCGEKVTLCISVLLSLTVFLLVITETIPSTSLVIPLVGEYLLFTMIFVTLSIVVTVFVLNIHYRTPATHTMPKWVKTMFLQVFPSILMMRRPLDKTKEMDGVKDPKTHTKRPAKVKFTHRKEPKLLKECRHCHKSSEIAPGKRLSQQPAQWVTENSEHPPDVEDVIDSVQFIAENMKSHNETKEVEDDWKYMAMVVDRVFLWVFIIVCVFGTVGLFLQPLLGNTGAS
Sequence of α6β2* nicotinic receptor (P12390 25-500): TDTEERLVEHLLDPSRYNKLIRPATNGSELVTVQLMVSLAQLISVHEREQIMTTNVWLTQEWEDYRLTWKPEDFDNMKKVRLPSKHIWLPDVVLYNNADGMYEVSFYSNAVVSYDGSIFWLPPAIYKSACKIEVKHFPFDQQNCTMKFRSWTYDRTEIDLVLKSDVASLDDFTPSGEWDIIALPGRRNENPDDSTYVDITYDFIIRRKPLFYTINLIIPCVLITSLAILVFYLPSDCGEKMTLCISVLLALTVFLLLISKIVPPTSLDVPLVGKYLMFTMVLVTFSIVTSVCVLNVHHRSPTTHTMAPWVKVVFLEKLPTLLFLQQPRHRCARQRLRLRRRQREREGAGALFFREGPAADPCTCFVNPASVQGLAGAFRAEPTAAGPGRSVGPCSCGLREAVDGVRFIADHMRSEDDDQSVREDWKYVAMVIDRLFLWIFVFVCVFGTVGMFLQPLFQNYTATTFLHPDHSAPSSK
T4 sequence (P09483 31-630): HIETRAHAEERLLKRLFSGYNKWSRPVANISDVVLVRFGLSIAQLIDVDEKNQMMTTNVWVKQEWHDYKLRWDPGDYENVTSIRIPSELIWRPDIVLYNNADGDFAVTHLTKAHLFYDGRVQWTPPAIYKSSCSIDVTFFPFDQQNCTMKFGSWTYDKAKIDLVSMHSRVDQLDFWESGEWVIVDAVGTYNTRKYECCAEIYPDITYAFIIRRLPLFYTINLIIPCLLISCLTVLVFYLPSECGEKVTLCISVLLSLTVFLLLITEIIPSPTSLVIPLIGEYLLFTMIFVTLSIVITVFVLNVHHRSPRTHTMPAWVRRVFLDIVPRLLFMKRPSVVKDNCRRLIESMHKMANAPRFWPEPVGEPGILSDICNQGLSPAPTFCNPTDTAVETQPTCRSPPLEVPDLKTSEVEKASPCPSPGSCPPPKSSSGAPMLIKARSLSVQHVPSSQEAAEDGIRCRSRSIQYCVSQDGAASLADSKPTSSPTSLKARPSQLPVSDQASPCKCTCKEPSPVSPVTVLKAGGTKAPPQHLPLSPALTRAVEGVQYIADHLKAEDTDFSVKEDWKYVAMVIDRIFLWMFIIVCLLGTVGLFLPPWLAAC
T4 sequence (P12390 25-500): as the sequence (P12390 25-500) above
T5 sequence (Q05941 23-502): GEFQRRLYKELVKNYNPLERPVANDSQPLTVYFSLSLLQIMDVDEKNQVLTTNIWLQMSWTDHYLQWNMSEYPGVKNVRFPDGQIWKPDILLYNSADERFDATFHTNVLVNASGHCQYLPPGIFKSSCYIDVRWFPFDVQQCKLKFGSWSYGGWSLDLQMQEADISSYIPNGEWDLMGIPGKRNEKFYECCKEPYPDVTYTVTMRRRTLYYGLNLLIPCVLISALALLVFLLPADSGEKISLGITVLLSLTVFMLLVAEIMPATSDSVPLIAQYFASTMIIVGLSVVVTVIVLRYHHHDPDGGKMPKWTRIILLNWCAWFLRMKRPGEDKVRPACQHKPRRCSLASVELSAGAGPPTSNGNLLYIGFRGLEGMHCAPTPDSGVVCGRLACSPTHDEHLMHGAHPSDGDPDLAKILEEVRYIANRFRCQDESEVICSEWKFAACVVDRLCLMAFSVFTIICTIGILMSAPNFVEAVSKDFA
T3 sequence (P23977 whole entry): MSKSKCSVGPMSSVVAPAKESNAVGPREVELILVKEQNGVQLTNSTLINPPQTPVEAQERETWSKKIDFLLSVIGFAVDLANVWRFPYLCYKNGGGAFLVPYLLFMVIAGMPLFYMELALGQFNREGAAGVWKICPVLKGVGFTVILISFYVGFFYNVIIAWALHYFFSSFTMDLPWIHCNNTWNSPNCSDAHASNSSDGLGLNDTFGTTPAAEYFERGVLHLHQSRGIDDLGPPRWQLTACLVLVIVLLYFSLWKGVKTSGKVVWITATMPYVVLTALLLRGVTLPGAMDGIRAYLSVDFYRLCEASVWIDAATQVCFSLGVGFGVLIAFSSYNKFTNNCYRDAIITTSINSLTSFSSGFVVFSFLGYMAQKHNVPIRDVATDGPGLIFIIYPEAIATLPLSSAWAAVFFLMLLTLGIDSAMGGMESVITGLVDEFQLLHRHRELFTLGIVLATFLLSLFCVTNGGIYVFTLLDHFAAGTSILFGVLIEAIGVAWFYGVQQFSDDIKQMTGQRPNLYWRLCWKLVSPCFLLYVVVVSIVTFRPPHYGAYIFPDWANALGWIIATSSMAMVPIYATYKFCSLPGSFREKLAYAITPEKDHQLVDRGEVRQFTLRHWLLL
T2 sequence (Q01827 whole entry): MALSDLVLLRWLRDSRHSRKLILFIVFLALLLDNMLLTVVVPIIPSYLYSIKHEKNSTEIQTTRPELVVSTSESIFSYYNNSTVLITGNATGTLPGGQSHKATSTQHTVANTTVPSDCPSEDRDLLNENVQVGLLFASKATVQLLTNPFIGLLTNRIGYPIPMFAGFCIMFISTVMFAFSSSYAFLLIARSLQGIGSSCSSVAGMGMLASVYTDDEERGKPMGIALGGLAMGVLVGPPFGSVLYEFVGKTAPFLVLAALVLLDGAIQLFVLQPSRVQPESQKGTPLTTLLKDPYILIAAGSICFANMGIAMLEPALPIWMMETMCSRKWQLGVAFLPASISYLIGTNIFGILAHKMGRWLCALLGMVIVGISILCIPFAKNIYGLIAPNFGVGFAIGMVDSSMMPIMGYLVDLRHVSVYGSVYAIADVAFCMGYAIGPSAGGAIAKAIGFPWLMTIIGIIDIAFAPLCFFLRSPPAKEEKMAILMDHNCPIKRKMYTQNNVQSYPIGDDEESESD
T1 sequence (P31652 whole entry): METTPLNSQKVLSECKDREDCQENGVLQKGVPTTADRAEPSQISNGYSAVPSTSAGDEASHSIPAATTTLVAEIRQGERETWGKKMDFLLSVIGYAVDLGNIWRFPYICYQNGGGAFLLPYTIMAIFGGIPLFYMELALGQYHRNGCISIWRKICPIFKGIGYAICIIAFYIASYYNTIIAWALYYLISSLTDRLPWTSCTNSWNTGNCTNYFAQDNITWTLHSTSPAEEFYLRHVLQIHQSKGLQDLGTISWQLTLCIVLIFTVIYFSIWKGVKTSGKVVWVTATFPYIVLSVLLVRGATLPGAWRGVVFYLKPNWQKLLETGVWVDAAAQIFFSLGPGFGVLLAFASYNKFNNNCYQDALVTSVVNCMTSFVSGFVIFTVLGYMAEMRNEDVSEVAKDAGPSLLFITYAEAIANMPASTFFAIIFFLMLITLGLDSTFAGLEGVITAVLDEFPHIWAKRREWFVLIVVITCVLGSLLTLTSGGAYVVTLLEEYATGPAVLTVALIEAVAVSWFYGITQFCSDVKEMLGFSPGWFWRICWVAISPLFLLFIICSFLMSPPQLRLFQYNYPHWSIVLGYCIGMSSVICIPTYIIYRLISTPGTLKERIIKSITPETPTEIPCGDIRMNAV

| SMILES | Ki [1, 8] [nM] | IC50 [1] [nM] | IC50 (VMAT2 [2]) [nM] | Ki [3, 9] [nM] | selectivity as inhibitor of α6β2* (and α3β4*) subtypes of nAChR compared to inhibition of SERT function (α6β2* nicotinic receptor) [fold] | selectivity for the α6β2* subtype of nAChR relative to interaction with the MTBZ site on VMAT2 (α6β2* nicotinic receptor) [fold] | selectivity for α6β2* (and α3β4*) subtypes of nAChR compared to α4β2* or α7* subtypes (α6β2* nicotinic receptor) [fold] | IC50 (α6β2* nicotinic receptor; [10]) [nM] | IC50 (α6β2* nicotinic receptor; [11]) [nM] | IC50 (α3β4* nicotinic receptor; Table 1) [nM] | Ki (α4β2* nicotinic receptor [4]; [12]) [nM] | Ki (α4β2* nicotinic receptor [4]; [13]) [nM] | IC50 ([5]; Rattus norvegicus) [nM] | Ki (VMAT2 [6]) [nM] | Ki (α7* nicotinic receptor) [nM] | IC50 (α4β2* nicotinic receptor [7]) [nM] | Ki [3, 14] [nM] | Ki (α4β2* nicotinic receptor [4]; [15]) [nM] | other results |
| --- | --- | --- | --- | --- | --- | --- | --- | --- | --- | --- | --- | --- | --- | --- | --- | --- | --- | --- | --- |
| CN1[C@H](/C=C/c2ccccc2)CCC[C@H]1/C=C/c1ccccc1 [Compound 15, N-methyl-2S,6S-trans-di-trans-styrylpiperidine] | 380 | 1190 | 5150 | 260 | 2.2 | 9.5 | > 24 | 1000 | 100 to 1000 | 30 | 11900 | 13000 | > 100000 | – | – | – | – | – | more potent inhibiting the function of SERT than Compound 14 ([1]; earlier data): 19 fold; Ki ([1]; read-out: inhibition of serotonin uptake Ki): 10 to 380 nM; IC50 (α6β2* nicotinic receptor; Table 4, earlier studies, inhibition of 10 μM S(−)-nicotine, read-out: Inhibition of Nicotine-Evoked [3H]DA Overflow (IC50) α6β2*): 540 nM; loss of affinity for the nicotinic receptor compared to lobeline (α4β2* nicotinic receptor [4]; Table 1 data, [3H]nicotine binding): 1000 fold |
| COc1ccccc1CC[C@H]1CCC[C@@H](CCc2ccccc2OC)N1C [Compound 37, N-methyl-2,6-cis-di-(o-methoxyphenethyl)piperidine] | – | – | – | – | – | – | – | – | – | – | > 100000 | – | – | 430 to 680 | 26000 | – | – | – | – |
| Cc1ccc(S(=O)(=O)O[C@@H](C[C@H]2CCC[C@@H](CC(=O)c3ccccc3)N2C)c2ccccc2)cc1 [Compound 2, 2S,6R,8S-2-[6-(β-Para-toluenesulfonyloxyphenethyl)-1-methyl-2-piperidyl]-acetophenone] | 1670 | – | – | 29100 | – | – | – | 1000 | – | – | 11 | – | – | – | 10800 | 2 | 39000 | 4.1 | – |
| CN1[C@H](/C=C/c2ccccc2)CCC[C@@H]1/C=C/c1ccccc1 [Compound 14, N-methyl-2,6-cis-di-trans-styrylpiperidine] | 8940 | 23200 | 1290 | 580 | 770 | 43 | > 370 | – | 0.3 | 10 | > 100000 | 11000 | 430 to 1250 | – | – | > 10000 | 800 | > 100000 | melting point: 149 to 150 °C; IC50 (α6β2* nicotinic receptor; Inhibition of Nicotine-Evoked [3H]DA Overflow (IC50) α6β2*): 30 nM; more potent at inhibiting nicotine-evoked [3H]DA and [3H]NE release compared to Compound 15 (α6β2* nicotinic receptor; rat striatal and hippocampal slices, earlier data): 18 fold; IC50 (α3β4* nicotinic receptor; Table 4, earlier studies): 21 nM; IC50 ([5]; superfused rat striatal slices): 700 nM |
| COc1cccc(CC[C@H]2CCC[C@@H](CCc3cccc(OC)c3)N2C)c1 [Compound 39, N-methyl-2,6-cis-di-(m-methoxyphenethyl)piperidine] | – | – | – | – | – | – | – | – | – | – | > 100000 | – | – | 430 to 680 | 25500 | – | – | – | – |
| CN1[C@@H](CC(=O)c2ccccc2)CCC[C@H]1/C=C/c1ccccc1 [Compound 5, N-methyl-2R-phenacyl-6S-trans-styrylpiperidine] | 1860 | – | – | 1740 | – | – | – | – | – | – | 440 | – | – | – | 34200 | 300 | 3000 | 130 | inhibition of DAT, potency compared with lobeline ([3]; Table 1 data): 17 fold; inhibition of DAT, potency compared with lobeline ([3]; earlier study (Table 3)): 10 fold |
